Assay results reported in US20230219965A1 (KSQ Therapeutics, Inc., priority 2020, published 2023).
Read-outs that look alike come from different tables or passages of the source.

Key:
[1] = target: USP1/UAF1 enzyme (Homo sapiens, UniProt O94782); assay: USP1/UAF1 deubiquitination assay (ubiquitin-rhodamine 110 substrate); type: biochemical; details: read-out: USP1 IC50 (Ub-Rho)
Method in brief: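 Cleavage of 150 nM ubiquitin-rhodamine 110 by 0.05 nM USP1/UAF1 was followed as fluorescence (Ex480/Em540, kinetic, 30 min) in Tris-HCl pH 7.8 buffer with EDTA, BSA, DTT and Tween-20. Compounds, top 10 μM, were preincubated with enzyme 10 min; % inhibition against no-enzyme and DMSO wells gave four-parameter IC50s.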

[2] = test system: Ub-PCNA levels in the nucleus of ES2 cells (USP1 activity); assay: ES2 Ub-PCNA immunofluorescence (IF) assay; type: cell-based; details: Homo sapiens, ES-2; ES2 cells, 3 hours, Ub-PCNA immunofluorescence; read-out: USP1 IC50 (Ub-PCNA)
Method in brief: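 AC50 derived from percent Ub-PCNA-positive nuclei, positivity set by a 95% cutoff from untreated-well intensities. Readout by imaging immunofluorescence (anti-Ub-PCNA, DAPI nuclear mask) after methanol fixation. Compound exposure: 3 h at 37° C, 0.3% DMSO final, on cells plated overnight.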

[3] = ADME solubility determination in PBS at pH 2.0 and pH 7.4; type: physicochemical; details: phosphate buffered saline, 25 °C, thermodynamic from solid
Method in brief: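 Solubility was read by LC-MS/MS on centrifuged supernatants, calibrated to a known-concentration standard and corrected for dilution. Compound, dried down from 10 mM DMSO stock, was equilibrated 24 h at 25° C with shaking in PBS at pH 2.0 or pH 7.4.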

[4] = Liver microsomal metabolic stability, rat liver microsomes (RLM); details: rat, liver microsomes, t1/2 (min) in RLM, 1 μM compound, 1 mg/mL microsomes, NADPH
[5] = Liver microsomal metabolic stability, human liver microsomes (HLM); details: human, liver microsomes
Protocol: Samples were prepared by adding 222.5 μL of a master solution (100 mM phosphate buffer and 1 mg/mL liver microsomes (HLM or RLM)) and 25 μL of a 10 mM NADPH solution to incubation plates, which were then warmed for 10 min. Each compound was separately dissolved in DMSO to prepare 10 mM stock solutions, which were then diluted to 100 μM with acetonitrile. A reaction was started by adding 2.5 μL of the 100 μM solution of each compound to separate incubation plates such that the final concentration of for each compound in each plate was 1 μM.
25 μL aliquots of each sample were taken at 0.5, 5, 10, 15, 20 and 30 minutes, and the reaction was stopped by adding 5 volumes of cold acetonitrile with IS (100 nM alprazolam, 200 nM caffeine and 100 nM tolbutamide). The samples were then centrifuged at 3,220 G for 30 minutes, and 100 μL of the supernatant fluid was mixed with 100 μL of ultra-pure H2O.
The samples were then analyzed by LC-MS/MS. Peak areas were determined from extracted ion chromatograms. Slope values (k) were determined by linear regression of the natural logarithm of the remaining percentage of the compound vs. incubation time curve. The in vitro half-life (in vitro t1/2) was determined from the slope value using the following equation:

[6] = pH 2, aqueous buffer, PBS pH 2.0, 25° C., read-out: Solubility at pH 2.0
[7] = pH 7.4, aqueous buffer, PBS pH 7.4, 25° C., read-out: Solubility at pH 7.4

Chain of USP1/UAF1 enzyme (O94782 whole entry): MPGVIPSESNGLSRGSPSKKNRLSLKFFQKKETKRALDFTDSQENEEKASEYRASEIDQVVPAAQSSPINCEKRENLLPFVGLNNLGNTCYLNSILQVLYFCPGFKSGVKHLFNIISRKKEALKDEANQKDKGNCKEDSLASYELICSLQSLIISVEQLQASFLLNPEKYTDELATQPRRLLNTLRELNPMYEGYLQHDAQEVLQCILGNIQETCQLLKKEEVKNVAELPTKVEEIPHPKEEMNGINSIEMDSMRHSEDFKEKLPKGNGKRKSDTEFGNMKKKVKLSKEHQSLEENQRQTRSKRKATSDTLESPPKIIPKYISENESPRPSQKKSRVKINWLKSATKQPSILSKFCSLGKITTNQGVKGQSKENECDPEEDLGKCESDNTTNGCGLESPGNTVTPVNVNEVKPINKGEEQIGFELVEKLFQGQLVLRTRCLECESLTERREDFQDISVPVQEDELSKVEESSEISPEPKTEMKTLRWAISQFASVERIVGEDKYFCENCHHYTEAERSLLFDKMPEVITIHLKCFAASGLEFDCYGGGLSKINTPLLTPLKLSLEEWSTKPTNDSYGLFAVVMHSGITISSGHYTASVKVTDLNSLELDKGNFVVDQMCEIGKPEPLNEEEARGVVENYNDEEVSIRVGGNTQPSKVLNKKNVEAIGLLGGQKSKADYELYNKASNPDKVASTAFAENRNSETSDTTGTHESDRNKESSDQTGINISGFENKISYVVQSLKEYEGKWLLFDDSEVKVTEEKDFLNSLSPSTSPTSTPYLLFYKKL
Chain of USP1/UAF1 enzyme (Q8TAF3 whole entry partner): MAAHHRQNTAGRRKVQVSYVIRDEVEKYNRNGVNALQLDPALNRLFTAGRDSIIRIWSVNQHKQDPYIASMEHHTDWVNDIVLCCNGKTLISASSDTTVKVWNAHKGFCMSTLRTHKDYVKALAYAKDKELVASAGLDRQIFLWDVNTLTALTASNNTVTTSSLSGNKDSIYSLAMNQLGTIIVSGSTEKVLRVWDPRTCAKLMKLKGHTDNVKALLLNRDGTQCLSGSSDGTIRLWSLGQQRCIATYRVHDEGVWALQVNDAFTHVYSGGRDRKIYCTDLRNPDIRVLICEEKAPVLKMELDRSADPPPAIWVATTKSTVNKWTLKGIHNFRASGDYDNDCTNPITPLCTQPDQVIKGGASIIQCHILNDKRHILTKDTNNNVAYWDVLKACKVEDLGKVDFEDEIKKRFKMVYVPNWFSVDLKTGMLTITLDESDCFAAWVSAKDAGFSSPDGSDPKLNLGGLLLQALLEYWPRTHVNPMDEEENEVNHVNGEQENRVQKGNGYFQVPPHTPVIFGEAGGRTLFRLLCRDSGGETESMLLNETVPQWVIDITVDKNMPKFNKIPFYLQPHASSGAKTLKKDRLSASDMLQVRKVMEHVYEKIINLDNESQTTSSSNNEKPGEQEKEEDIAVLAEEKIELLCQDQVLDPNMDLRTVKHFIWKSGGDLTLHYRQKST

CCn1cc(C(F)(F)F)nc1-c1ccc(CC2c3cc(-c4c(OC)ncnc4C4CC4)nn3CCN2C)cc1 (stereo not drawn) [Example 362, 2-(4-cyclopropyl-6-methoxypyrimidin-5-yl)-4-(4-(1-ethyl-4-(trifluoromethyl)-1H-imidazol-2-yl)benzyl)-5-methyl-4,5,6,7-tetrahydropyrazolo[1,5-a]pyrazine]
IC50 [1]: < 0.1 µM
IC50 [2]: 0.1 to 0.5 µM
solubility at 24 h [3, 6]: ≥ 10 µM
solubility at 24 h [3, 7]: ≥ 10 µM
half-life at 1 μM [4]: < 25 min
half-life at 1 μM [5]: < 25 min

CCn1cc(C(F)(F)F)nc1-c1ccc(NC2CCCn3nc(-c4c(Cl)cnn4C(C)C)cc32)cc1F (stereo not drawn) [Example 241, 2-(4-chloro-1-isopropyl-1H-pyrazol-5-yl)-N-(4-(1-ethyl-4-(trifluoromethyl)-1H-imidazol-2-yl)-3-fluorophenyl)-4,5,6,7-tetrahydropyrazolo[1,5-a]pyridin-4-amine]
IC50 [1]: < 0.1 µM
IC50 [2]: 0.1 to 0.5 µM
solubility at 24 h [3, 6]: < 10 µM
solubility at 24 h [3, 7]: < 10 µM
half-life at 1 μM [4]: > 25 min
half-life at 1 μM [5]: > 25 min

CCn1cc(C(F)(F)F)nc1-c1c(F)cc(CN2C(=O)CCn3nc(-c4c(OC)ncnc4C4CC4)cc32)cc1OC [Example 140]
IC50 [1]: < 0.1 µM
IC50 [2]: < 0.1 µM
solubility at 24 h [3, 6]: ≥ 10 µM
solubility at 24 h [3, 7]: < 10 µM
half-life at 1 μM [4]: > 25 min
half-life at 1 μM [5]: > 25 min

COc1cccnc1-c1ccc(CN2C(=O)CCn3nc(-c4c(Cl)cnn4C(C)C)cc32)cc1 [Example 305]
IC50 [1]: < 0.1 µM
IC50 [2]: 0.1 to 0.5 µM
solubility at 24 h [3, 6]: ≥ 10 µM
solubility at 24 h [3, 7]: < 10 µM
half-life at 1 μM [4]: < 25 min
half-life at 1 μM [5]: < 25 min

Cc1cnn(C(C)C)c1-c1cc2n(n1)CCC(=O)N2Cc1ccc(-c2nc(C(F)(F)F)nn2C)cc1 [Example 11, 2-(1-isopropyl-4-methyl-1H-pyrazol-5-yl)-4-(4-(1-methyl-3-(trifluoromethyl)-1H-1,2,4-triazol-5-yl)benzyl)-6,7-dihydropyrazolo[1,5-a]pyrimidin-5(4H)-one]
IC50 [1]: > 0.5 µM
IC50 [2]: > 0.5 µM
solubility at 24 h [3, 6]: ≥ 10 µM
solubility at 24 h [3, 7]: < 10 µM
half-life at 1 μM [4]: < 25 min
half-life at 1 μM [5]: < 25 min

CCn1cc(C(F)(F)F)nc1-c1ccc(CN2c3cc(-c4c(OC)ncnc4C4CC4)nn3CCC2C)cc1F (stereo not drawn) [Example 49]
IC50 [1]: < 0.1 µM
IC50 [2]: < 0.1 µM
solubility at 24 h [3, 6]: ≥ 10 µM
solubility at 24 h [3, 7]: < 10 µM
half-life at 1 μM [4]: < 25 min
half-life at 1 μM [5]: < 25 min

Cc1cnn(C(C)C)c1-c1cc2n(n1)CCC(=O)N2Cc1ccc(-c2nc(C(F)(F)F)c[nH]2)cc1 [Example 70]
IC50 [1]: 0.1 to 0.5 µM
IC50 [2]: > 0.5 µM
solubility at 24 h [3, 6]: < 10 µM
solubility at 24 h [3, 7]: < 10 µM
half-life at 1 μM [4]: < 25 min
half-life at 1 μM [5]: < 25 min

COc1ncnc(C2CC2)c1-c1nc2n(n1)CCC(=O)N2[C@H](C)c1ccc(-c2nc(C(F)(F)F)cn2C(C)C)cc1 [Example 189]
IC50 [1]: < 0.1 µM
IC50 [2]: < 0.1 µM
solubility at 24 h [3, 6]: ≥ 10 µM
solubility at 24 h [3, 7]: ≥ 10 µM
half-life at 1 μM [4]: > 25 min
half-life at 1 μM [5]: > 25 min

COc1ncnc(C2CC2)c1-c1cc2n(n1)CCCN2Cc1ccc(-c2nc(C(F)(F)F)cn2C(C)C)c(F)c1 [Example 63]
IC50 [1]: < 0.1 µM
IC50 [2]: < 0.1 µM
solubility at 24 h [3, 6]: ≥ 10 µM
solubility at 24 h [3, 7]: < 10 µM
half-life at 1 μM [4]: < 25 min
half-life at 1 μM [5]: < 25 min

CCn1cc(C(F)(F)F)nc1-c1ccc(NC2CCCn3nc(-c4c(Cl)cnn4C(C)C)cc32)cn1 (stereo not drawn) [Example 245, 2-(4-chloro-1-isopropyl-1H-pyrazol-5-yl)-N-(6-(1-ethyl-4-(trifluoromethyl)-1H-imidazol-2-yl)pyridin-3-yl)-4,5,6,7-tetrahydropyrazolo[1,5-a]pyridin-4-amine]
IC50 [1]: < 0.1 µM
IC50 [2]: 0.1 to 0.5 µM
solubility at 24 h [3, 6]: < 10 µM
solubility at 24 h [3, 7]: < 10 µM
half-life at 1 μM [4]: > 25 min
half-life at 1 μM [5]: > 25 min

CCn1cc(C(F)(F)F)nc1-c1ccc(NC2c3cc(-c4c(Cl)cnn4C(C)C)nn3CCC2(C)C)cc1 (stereo not drawn) [Example 352, 2-(4-chloro-1-isopropyl-1H-pyrazol-5-yl)-N-(4-(1-ethyl-4-(trifluoromethyl)-1H-imidazol-2-yl)phenyl)-5,5-dimethyl-4,5,6,7-tetrahydropyrazolo[1,5-α]pyridin-4-amine]
IC50 [1]: < 0.1 µM
IC50 [2]: < 0.1 µM
solubility at 24 h [3, 6]: < 10 µM
solubility at 24 h [3, 7]: < 10 µM
half-life at 1 μM [4]: < 25 min
half-life at 1 μM [5]: > 25 min

CCn1cc(C(F)(F)F)nc1-c1ccc(CN2C(=O)CCn3nc(-c4c(OC)ncnc4C4CC4)nc32)cc1 [Example 171]
IC50 [1]: < 0.1 µM
IC50 [2]: < 0.1 µM
solubility at 24 h [3, 6]: ≥ 10 µM
solubility at 24 h [3, 7]: ≥ 10 µM
half-life at 1 μM [4]: > 25 min
half-life at 1 μM [5]: > 25 min

CCn1cc(C(F)(F)F)nc1-c1ccc(CN2C(=O)C(C)Cn3nc(-c4c(OC(F)F)ncnc4C4CC4)nc32)cc1F (stereo not drawn) [Example 351, 2-(4-cyclopropyl-6-(difluoromethoxy)pyrimidin-5-yl)-4-(4-(1-ethyl-4-(trifluoromethyl)-1H-imidazol-2-yl)-3-fluorobenzyl)-6-methyl-6,7-dihydro-[1,2,4]triazolo[1,5-a]pyrimidin-5(4H)-one]
IC50 [1]: < 0.1 µM
IC50 [2]: < 0.1 µM
solubility at 24 h [3, 6]: < 10 µM
solubility at 24 h [3, 7]: < 10 µM
half-life at 1 μM [4]: > 25 min
half-life at 1 μM [5]: > 25 min

CCn1cc(C(F)(F)F)nc1-c1ccc(O[C@@H]2CCCn3nc(-c4c(OC)ncnc4C4CC4)cc32)cc1F (single isomer, unassigned) [Example 264]
IC50 [1]: < 0.1 µM
IC50 [2]: 0.1 to 0.5 µM
solubility at 24 h [3, 6]: ≥ 10 µM
solubility at 24 h [3, 7]: < 10 µM
half-life at 1 μM [4]: > 25 min
half-life at 1 μM [5]: > 25 min

COc1ncnc(C2CC2)c1-c1cc2n(n1)CCC(=O)N2Cc1ccc(-c2nc(C(F)(F)F)cn2C(C)C)c(F)c1 [Example 18, 2-(4-cyclopropyl-6-methoxypyrimidin-5-yl)-4-(3-fluoro-4-(1-isopropyl-4-(trifluoromethyl)-1H-imidazol-2-yl)benzyl)-6,7-dihydropyrazolo[1,5-a]pyrimidin-5(4H)-one]
IC50 [1]: < 0.1 µM
IC50 [2]: < 0.1 µM
solubility at 24 h [3, 6]: < 10 µM
solubility at 24 h [3, 7]: < 10 µM
half-life at 1 μM [4]: > 25 min
half-life at 1 μM [5]: > 25 min

COc1c(CN2C(=O)CCn3nc(-c4c(OC(F)F)ncnc4C4CC4)nc32)ccc(-c2nc(C(F)(F)F)cn2C(C)C)c1F [Example 365, 2-(4-cyclopropyl-6-(difluoromethoxy)pyrimidin-5-yl)-4-(3-fluoro-4-(1-isopropyl-4-(trifluoromethyl)-1H-imidazol-2-yl)-2-methoxybenzyl)-6,7-dihydro-[1,2,4]triazolo[1,5-a]pyrimidin-5(4H)-one]
IC50 [1]: < 0.1 µM
IC50 [2]: < 0.1 µM
solubility at 24 h [3, 6]: < 10 µM
solubility at 24 h [3, 7]: < 10 µM
half-life at 1 μM [4]: > 25 min
half-life at 1 μM [5]: > 25 min

CCn1cc(C(F)(F)F)nc1-c1ccc(N[C@@H]2CCCn3nc(-c4c(OC)ncnc4C4CC4)cc32)cc1 (single isomer, unassigned) [Example 243]
IC50 [1]: < 0.1 µM
IC50 [2]: 0.1 to 0.5 µM
solubility at 24 h [3, 6]: ≥ 10 µM
solubility at 24 h [3, 7]: < 10 µM
half-life at 1 μM [4]: > 25 min
half-life at 1 μM [5]: > 25 min

COc1ncnc(C2CC2)c1-c1nc2n(n1)CCC(=O)N2[C@H](C)c1ccc(-c2nc(C(F)(F)F)c(Br)n2C)cc1 [Example 206]
IC50 [1]: < 0.1 µM
IC50 [2]: < 0.1 µM
solubility at 24 h [3, 6]: ≥ 10 µM
solubility at 24 h [3, 7]: < 10 µM
half-life at 1 μM [4]: > 25 min
half-life at 1 μM [5]: > 25 min

CCn1cc(C(F)(F)F)nc1-c1ccc(CN2C(=O)CCn3nc(-c4c(Cl)cnn4[C@H](C)COC)cc32)cc1F [Example 131]
IC50 [1]: < 0.1 µM
IC50 [2]: < 0.1 µM
solubility at 24 h [3, 6]: < 10 µM
solubility at 24 h [3, 7]: < 10 µM
half-life at 1 μM [4]: < 25 min
half-life at 1 μM [5]: < 25 min

CC(C)n1ncc(Cl)c1-c1cc2n(n1)CC(C)(O)C(=O)N2Cc1ccc(-c2nc(C(F)(F)F)cn2C)cc1 (stereo not drawn) [Example 232, 2-(4-chloro-1-isopropyl-1H-pyrazol-5-yl)-6-hydroxy-6-methyl-4-(4-(1-methyl-4-(trifluoromethyl)-1H-imidazol-2-yl)benzyl)-6,7-dihydropyrazolo[1,5-α]pyrimidin-5(4H)-one]
IC50 [1]: 0.1 to 0.5 µM
IC50 [2]: 0.1 to 0.5 µM
solubility at 24 h [3, 6]: < 10 µM
solubility at 24 h [3, 7]: < 10 µM
half-life at 1 μM [4]: > 25 min
half-life at 1 μM [5]: > 25 min

CCn1cc(C(F)(F)F)nc1-c1ccc(N[C@H]2CCCn3nc(-c4c(OC)ncnc4C4CC4)cc32)cc1 (single isomer, unassigned) [Example 242]
IC50 [1]: < 0.1 µM
IC50 [2]: 0.1 to 0.5 µM
solubility at 24 h [3, 6]: < 10 µM
solubility at 24 h [3, 7]: < 10 µM
half-life at 1 μM [4]: > 25 min
half-life at 1 μM [5]: > 25 min
